In publication PMC3012033 (Lipids in Health and Disease, 2010):

Columns and labels:
Blood cells evaluation = assay type: in vivo, C57BL/6J mice; conditions: mean ± S.E.M., seven animals
Protocol: (§1) C57BL/6J mice, weighing about 20 g and 60 days older were used. After the experiments, blood was collected from the axillary plexus. The bone marrow was collected from the femur of the same animals. The spleen cellularities were also analyzed.
Blood samples were collected twenty days after tumor implant from the axillary plexus of the animals in all experimental groups, which were used to perform blood and reticulocyte count, according to the techniques used in the Laboratory of Experimental Hematology of FCF/USP [14].

B16F10 melanoma cells = test: Cell cycle analysis by flow cytometry (propidium iodide); assay type: cell-based, mice; conditions: 0.8 μM
Protocol: Cell cycle analysis was determined by flow cytometry at the Federal State University of Paraná. Briefly, after the different treatments, 2 × 10^6 cells were trypsinized, washed three times with PBS, fixed in 70% ethanol, and stained with Propidium Iodide (PI) solution. All analyses were done using a FACScalibur flow cytometer (Becton Dickinson, San Jose, CA). The red fluorescence of PI was collected through a 585/42-nm band -pass filter, and the fluorescence signals were measured in a linear scale of 1024 channels. For each sample, at least 10000 events were acquired and the data were analyzed using an appropriate software (CELLQuest, Becton Dickinson, San Jose, CA).

[1] = test system: B16F10 mice melanoma cell line; test: B16F10 melanoma cell viability (MTT, Trypan Blue exclusion); assay type: cell-based
Protocol: B16F10 mice melanoma cell line was generously provided by Dr. Roger Chammas (USP, São Paulo, Brazil). Cells were routinely cultured in RPMI 1640 medium supplemented with 10% fetal bovine serum (FBS) at 37°C in a humidified atmosphere containing 5% CO2.
To dissolve the crystals of Formazan was used dimethylsulfoxide (DMSO). Quantification was obtained by the absorbance reading at a wavelength of 450 nm to 690 nm. Cell viability was also evaluated by the method of Trypan Blue exclusion (Invitrogen, Carlsbad, CA), by direct counting in a hemocytometer.

B16F10 melanoma = test: Tumor growth and survival of B16F10 melanoma bearing mice; assay type: in vivo, C57Bl/6J mice
Protocol: In vivo experiments were conducted in male C57BL/6J mice (18-25 g), housed at 22 ± 2°C under a 12/12 h light/dark cycle with free access to food and water until use. The animals were acclimatized to the laboratory for at least 24 h before testing and were used only once. All animal handling and experimental procedures were conducted with prior approval of the ethics committee on animal use of the University of São Paulo Medical School Hospital Ethics Committee.
To mice experimentations, the simvastatin compressed powders were macerated and watery solutions were made.
All animal's procedures were made in Butantan Institute with supervision of Dr. Durvanei Augusto Maria, in accordance with University of Sao Paulo Medical School Hospital Ethics Committee. Briefly, 5 × 10^4 B16F10 melanoma cells were injected subcutaneously into C57Bl/6J mice. […] Tumors were measured using a caliper and volume was estimated using the formula V = (small diameter)^2 × (large diameter)/¾ πR [13].
Tumor growth data were analyzed by Student's t test, survival rate data were analyzed by Kaplan-Meyer curves and hematological data were analyzed by one-way ANOVA with Tukey posttest using Graph Pad Prism Stat version 4.0 for Windows.

[2] = Bone marrow and spleen cellularity; assay type: in vivo, C57BL/6J mice
Protocol: as §1
The animals were first anesthetized, exsanguinated and sacrificed by cervical dislocation. The bone marrow was obtained by washing the cavity with the culture femoral McCoy's 5A modified (Sigma, Chemical Company, USA) ice cream.
Sleen cells were collected by the same sacrificed animals of hematological procedures. The spleen was transferred to plastic Petri dish with iced culture McCoy's 5A modified (Sigma, Chemical Company, USA) containing 10% EDTA, used to collect the cells. In the Petri dish, the spleen capsule was broken in one of its ends, with the aid of two needles bent into "L", and fixed in syringes. The cells were gently removed from the dish by the dissociation method. The suspension was homogenized in the Petri dish with standard Pasteur pipette to complete cell separation and transferred to conical plastic tube and kept in an ice bath. The cells obtained from the spleen were quantified in a Neubauer chamber hemocytometer after dilution of 1:500 liquid Turk, diluent composed of 1% solution of glacial acetic acid. For morphological evaluation, the slides were performed in cell suspension cellspin cytocentrifuge (Incibras) and subsequently submitted to the staining of May-Grunwald GIENS, modified by Rosenfeld, and peroxidase method modified by Graham Knoll, for identification and quantification of different types cell.

[3] = melanoma bearing mice (Tumor-Simvastatin), twenty days after implant
[4] = mice without tumor (Control-Simvastatin)
[5] = mice bearing melanoma treated with same doses
[6] = mice without tumor (Control-Simvastatin), vs control

With `CCC(C)(C)C(=O)O[C@H]1C[C@@H](C)C=C2C=C[C@H](C)[C@H](CC[C@@H]3C[C@@H](O)CC(=O)O3)[C@H]21` [simvastatin, Simvastatin] the Eosinophils (Blood cells evaluation; [3]) was 8.5 ± 3.0 %, the Hemoglobin (Blood cells evaluation; [3]) was 12.4 ± 1.2 g/dL and the “Total Leukocytes” value (Blood cells evaluation; [3]) was 3.9 ± 0.8 * 103/mm3. For the same compound, the Eosinophils (Blood cells evaluation; [4]) was 4.7 ± 1.4%, the Hemoglobin (Blood cells evaluation; [4]) was 12.8 ± 1.9 g/dL and the “Total Leukocytes” value (Blood cells evaluation; [4]) was 3.3 ± 0.1 * 103/mm3. The cell cycle effect (B16F10 melanoma cells; 24 hours) was “early cell cycle arrest in G0/G1”, the hypodiploid cells (B16F10 melanoma cells; after G0/G1 arrest) was “increase of hypodiploid cells” and the “toxic effect on B16F10 cells” value ([1]; 0.8 μM) was “toxic effect”. For the same compound, the “toxic effect on B16F10 cells” value ([1]; 1.6 μM) was “toxic effect”, the “toxicity (cell death) in the first 24 h of incubation” value ([1]; 1.6 μM, first 24 h) was “massive death” and the “number of viable cells, trypan blue assay” value ([1]; cultured melanoma, after 48 hours, vs vehicle-treated) was “reduces the number of viable cells”. The “final tumor sizing compared to the controls” value (B16F10 melanoma; 5 mg/Kg/day orally for 10 days, started 10 days after inoculation) was 25%, the “treated mice with a survival of 28 days (Kaplan-Meyer)” value (B16F10 melanoma; 5 mg/Kg/day orally, no survival mice of control group on day 24) was “Twenty-five percent” and the total tumoral regression (B16F10 melanoma; melanoma bearing mice, tumor re-started to grow when treatment aborted) was “not developed”. For the same compound, the “tumor inhibition (B16F10 tumor growth)” value (B16F10 melanoma; over 10 days period) was “approximately 75%”, the “Femoral Bone Marrow cellularity” value [2, 5] was “equal” and the Spleen cellularity [2, 5] was “equal”. For the same compound, the “Femoral Bone Marrow cellularity” value [2, 6] was “decreased” and the Spleen cellularity [2, 6] was “decreased”.
